Measurements as given in ChEMBL document CHEMBL3425418 (Bioorg Med Chem Lett, 2015).

Assays:
[1] = AUC (0 to time) in Sprague-Dawley rat at 2.5 mg/kg, po; format: ADME, organism-based; parameters: dose 2.5 mg/kg, route oral; conditions: plasma
[2] = Mean residence time in Sprague-Dawley rat at 2.5 mg/kg, po; format: ADME, organism-based; parameters: dose 2.5 mg/kg, route oral; conditions: in vivo
[3] = Tmax in Sprague-Dawley rat at 2.5 mg/kg, po; format: ADME, organism-based; parameters: dose 2.5 mg/kg, route oral; conditions: in vivo
[4] = Half life in Sprague-Dawley rat at 2.5 mg/kg, po; format: ADME, organism-based; parameters: dose 2.5 mg/kg, route oral; conditions: in vivo
[5] = target: T1, Ephrin type-B receptor 2 (Homo sapiens, UniProt P29323); experiment: Inhibition of recombinant EphB2 (unknown origin) by cell-free assay
T1 sequence (P29323 whole entry): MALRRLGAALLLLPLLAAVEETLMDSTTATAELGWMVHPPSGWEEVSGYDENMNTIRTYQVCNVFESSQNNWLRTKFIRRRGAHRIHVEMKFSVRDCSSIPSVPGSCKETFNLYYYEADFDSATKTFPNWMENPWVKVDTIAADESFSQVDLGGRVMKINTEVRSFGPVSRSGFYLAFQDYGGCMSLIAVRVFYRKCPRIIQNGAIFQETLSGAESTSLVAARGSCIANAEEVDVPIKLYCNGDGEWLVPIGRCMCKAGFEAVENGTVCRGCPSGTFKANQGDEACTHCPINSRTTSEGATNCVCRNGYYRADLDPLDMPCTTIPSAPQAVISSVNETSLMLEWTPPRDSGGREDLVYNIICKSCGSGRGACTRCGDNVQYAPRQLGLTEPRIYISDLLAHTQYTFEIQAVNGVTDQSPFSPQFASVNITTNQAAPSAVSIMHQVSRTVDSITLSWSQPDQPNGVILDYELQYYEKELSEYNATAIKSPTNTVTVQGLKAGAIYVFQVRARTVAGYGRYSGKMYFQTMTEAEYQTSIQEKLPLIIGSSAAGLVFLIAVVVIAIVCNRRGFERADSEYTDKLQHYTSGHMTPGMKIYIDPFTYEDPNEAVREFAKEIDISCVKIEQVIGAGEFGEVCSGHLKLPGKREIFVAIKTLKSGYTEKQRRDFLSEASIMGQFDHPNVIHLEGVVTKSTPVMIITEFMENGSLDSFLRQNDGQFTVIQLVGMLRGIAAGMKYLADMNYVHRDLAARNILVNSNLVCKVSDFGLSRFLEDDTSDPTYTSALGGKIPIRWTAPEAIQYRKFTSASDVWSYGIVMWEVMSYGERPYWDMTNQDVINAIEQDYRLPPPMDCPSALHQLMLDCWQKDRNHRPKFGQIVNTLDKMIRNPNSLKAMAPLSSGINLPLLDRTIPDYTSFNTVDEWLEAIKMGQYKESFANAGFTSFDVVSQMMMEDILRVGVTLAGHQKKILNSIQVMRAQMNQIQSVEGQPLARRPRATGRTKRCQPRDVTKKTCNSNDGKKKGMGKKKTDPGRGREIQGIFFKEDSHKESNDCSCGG

[6] = Cmax in Sprague-Dawley rat at 2.5 mg/kg, po; format: ADME, organism-based; parameters: dose 2.5 mg/kg, route oral; conditions: in vivo
[7] = AUC (0 to infinity) in Sprague-Dawley rat at 2.5 mg/kg, po; format: ADME, organism-based; parameters: time infinity, dose 2.5 mg/kg, route oral; conditions: plasma
[8] = species on record: Homo sapiens; experiment: Toxicity in metastatic renal cell carcinoma patient assessed as hypertension; format: organism-based
[9] = species on record: Homo sapiens; experiment: Toxicity in metastatic renal cell carcinoma patient assessed as dysphonia; format: organism-based

## [2H]C([2H])([2H])Oc1cc2nccc(Oc3ccc(NC(=O)Nc4cc(C)on4)c(Cl)c3)c2cc1OC([2H])([2H])[2H]
[1]
  AUC: 69700 ng·h/mL
[2]
  MRT: 15.8 h
[3]
  Tmax: 5 h
[4]
  half-life: 11.1 h
[5]
  IC50: 26.8 nM
[6]
  Cmax: 3980 ng/mL
[7]
  AUC(0-inf): 73900 ng·h/mL

## CNC(=O)c1cc(Oc2ccc(NC(=O)Nc3ccc(Cl)c(C(F)(F)F)c3)cc2)ccn1 [SORAFENIB]
[8]
  Activity: 34%
[9]
  Activity: 5%

## COc1cc2nccc(Oc3ccc(NC(=O)Nc4cc(C)on4)c(Cl)c3)c2cc1OC [TIVOZANIB]
[1]
  AUC: 47500 ng·h/mL
[2]
  MRT: 13.4 h
[3]
  Tmax: 4.8 h
[8]
  Activity: 44%
[4]
  half-life: 9.35 h
[5]
  IC50: 17.5 nM
[9]
  Activity: 21%
[6]
  Cmax: 3060 ng/mL
[7]
  AUC(0-inf): 49100 ng·h/mL
